Target: Carbonic anhydrase 2 (Homo sapiens, UniProt P00918)
Description: Compound was tested for the binding affinity towards Carbonic anhydrase II by competitive fluorescence assay with dansylamide

Compound	Kd [nM]
NCC(=O)[C@@H](N)C(=O)NCCOCCOCCNC(=O)c1ccc(S(N)(=O)=O)cc1	19
CC(C)CC(N)C(=O)[C@@H](N)C(=O)NCCOCCOCCNC(=O)c1ccc(S(N)(=O)=O)cc1 (stereo not given in full)	16
NCCCCC(N)C(=O)[C@@H](N)C(=O)NCCOCCOCCNC(=O)c1ccc(S(N)(=O)=O)cc1 (stereo not given in full)	50
NC(CCC(=O)O)C(=O)[C@@H](N)C(=O)NCCOCCOCCNC(=O)c1ccc(S(N)(=O)=O)cc1 (stereo not given in full)	100
NC(CO)C(=O)[C@@H](N)C(=O)NCCOCCOCCNC(=O)c1ccc(S(N)(=O)=O)cc1 (stereo not given in full)	41
